According to patent US20090304607A1, “Antibacterial Flavor and Fragance Composition and Halitosis-Inhibition Flavor and Fragrance Composition and Oral Care Composition Containing the Same” (TAKASAGO INTERNATIONAL CORPORATION, priority 2002, published 2009):

Tests used:
[1] = system: volatile sulfide production from saliva; assay: Inhibition of volatile sulfide production from saliva (anaerobic culture, FPD-GC of head space); assay type: cell-based; conditions: saliva cultured 37° C. 3 hours under nitrogen
Description: A test of inhibitory activity of the fragrance materials on volatile sulfide production from saliva was carried out according to the following method. Saliva was collected in a 50 ml of sterile centrifuge tube from testee without brushing teeth in the morning between 9 to 10 o'clock, and was cooled on ice until use. Each of 2 ml of the saliva was put into sterile test tube with screw cap aseptically. Saliva only was used as control and that mixed with 20 μl of ethanol was used as reference.
After the addition of samples, the inner air was replaced nitrogen in a stream of nitrogen gas at 0.5 atm under stirring with a voltex mixer. Cultivation was carried out at 37° C. for 3 hours and cooled on ice until use. Volatile sulfides were analyzed by a gas chromatograph (FPD-GC) with a flame photometer. In this connection, the samples after the culture were stored in ice-water until their analysis.
Column: 6 m×4 mm i.d. (glass packed column) Column liquid phase: 20% DNP on 80/100 mesh Chromosorb W AW DMCS Column temperature: 100° C. Carrier gas (flow rate): N2 (40 ml/min) Injection temperature: 120° C. Detector: FPD (flame photometric detector; fitted with 393 nm filter for sulfur compound detection) Detector temperature: 150° C.
The inhibition rate of methyl mercaptan was determined according to the following equation:
Inhibition rate (%) of methyl mercaptan={(Blank−Sample)/Blank}×100
Blank and Sample in the equation represent the quantities of producing methyl mercaptan in respective cases. […]

[2] = system: Fusobacterium nucleatum JCM 6328 (Fn-1); assay: Bactericidal activity, CFU measuring method per Quantitative Suspension Test (EN 1276); assay type: cell-based; conditions: for Results of Judgment 30 sec (Log decrease of number of bacteria vs control): 30 sec contact; for Results of Judgment 1 min (Log decrease of number of bacteria vs control): 1 min contact
Description: The strain used in the bactericidal activity was obtained from The Institute of Physical and Chemical Research which was known to be a pathogen of periodontal disease and also known to produce volatile sulfides.
Fn-1 was cultured on slants of GAM medium (Nissui Pharmaceutical Co. Ltd.) and added physical saline to make a cell suspension. In detail, to each slant cultured at 37° C. for 24 hours under an anaerobic condition using BBL gas-pack anaerobic system, 2 ml of physiological saline was added and scraped off the microbes with a transfer loop to make a cell suspension. This operation was repeated twice, and the combined suspension was centrifugalized, added again a half amount of physiological saline to the precipitate to make the suspension. The suspension was filtered through two sheets of sterile gauze to remove agar pieces and fibrous cells. The filtrate was centrifugalized again, the precipitate was re-suspended in physiological saline to use for the tests.
As for test solutions, fragrance samples were dissolved in equal weight of dimethylformamide (DMF) and were diluted with ethanol to necessary concentrations (volume/volume).
Each test solution (30 μl) was added to sterile distilled water and stirred or subjected to ultrasonic treatment to dissolve sample or to form a homogeneous suspension.
To each solution or homogeneous suspension, 333 μl of previous cell suspension of Fn-1 was added and stirred. After 30 seconds and 1 minute, each 333 μl was added to 3 ml of D/E Neutralization broth (DIFCO) (10 fold dilution), 100 fold and 1000 fold dilution liquids were made similarly. Each 50 μl of the liquid was spread on 15 ml of Trypticase soy agar plates using Autoplate 4000 (Spiral Biotec Co. Ltd., MD, USA) and were cultivated at 37° C. for 40 hours under anaerobic condition. After the cultivation, colonies were counted by Q-Count (Spiral Biotec Co. Ltd., MD, USA) to determine CFU/ml.
Suspension, as a control, consisted of 3 ml of water and 333 μl of the cell suspension, and also suspension as a reference, consisted of 3 ml of water, 30 μl of ethanol and 333 μl of the cell suspension was employed to determine CFU/ml thereof.
“30 sec” and “1 min” were shown the sampling time, and “Log inc.” was shown the mean Log value of the control.

[3] = 1000 ppm, read-out: CH3SH Inhib. %
[4] = 500 ppm, read-out: CH3SH Inhib. %
[5] = 100 ppm, read-out: CH3SH Inhib. %

Compound: C=CCOC(=O)CCC1CCCCC1 [Allyl cyclohexylpropionate]
- CH3SH Inhib. % ([1]; 500 ppm): 92%

Compound: C=CCOC(=O)CCCCCC [Allyl enanthate]
- inhibition at 1000 ppm [1, 3]: 100%

Compound: CC1(C)C[C@H]2[C@H]1CC[C@]1(C)CCC[C@@]2(O)C1 [Caryophyllene alcohol]
- Results of Judgment 30 sec (Log decrease of number of bacteria vs control) ([2]; 500 ppm): 1.13 Log
- Results of Judgment 1 min (Log decrease of number of bacteria vs control) ([2]; 500 ppm): 2.25 Log
- CH3SH Inhib. % ([1]; 500 ppm): 100%

Compound: COC(/C=C/c1ccccc1)OC [Cinnamicaldehyde dimethyl acetal]
- CH3SH Inhib. % ([1]; 1000 ppm): 100%

Compound: O=C/C=C/c1ccccc1 [Cinnamicaldehyde]
- Results of Judgment 30 sec (Log decrease of number of bacteria vs control) ([2]; 2000 ppm): >3.42 Log
- Results of Judgment 1 min (Log decrease of number of bacteria vs control) ([2]; 2000 ppm): >3.42 Log
- inhibition at 2000 ppm ([1]; 2000 ppm, read-out: CH3SH Inhib. %): 100%

Compound: CC(C)=CCCC(C)=CC=O [Citral]
- inhibition at 500 ppm [1, 4]: 100%

Compound: CCCc1ccc(O)c(OC)c1 [Dihydroeugenol]
- Results of Judgment 30 sec (Log decrease of number of bacteria vs control) ([2]; 2000 ppm): >3.42 Log
- Results of Judgment 1 min (Log decrease of number of bacteria vs control) ([2]; 2000 ppm): >3.42 Log
- CH3SH Inhib. % ([1]; 2000 ppm): 100%

Compound: CC(C)=CCC/C(C)=C/CCC(C)CCO (stereo not shown) [Dihydrofarnesol]
- Results of Judgment 30 sec (Log decrease of number of bacteria vs control) ([2]; 300 ppm): >3.42 Log
- Results of Judgment 1 min (Log decrease of number of bacteria vs control) ([2]; 300 ppm): >3.42 Log
- CH3SH Inhib. % ([1]; 300 ppm): 100%

Compound: CCOC(=O)c1ccccc1O [Ethyl salicylate]
- inhibition at 1000 ppm [1, 3]: 100%

Compound: C=CCc1ccc(O)c(OC)c1 [Eugenol]
- inhibition at 500 ppm [1, 4]: 100%

Compound: CC(C)=CCCC(C)=CCCC(C)=CCO [Farnesol]
- Results of Judgment 30 sec (Log decrease of number of bacteria vs control) ([2]; 100 ppm): 3.70 Log
- Results of Judgment 1 min (Log decrease of number of bacteria vs control) ([2]; 100 ppm): >4.18 Log
- inhibition at 100 ppm [1, 5]: 100%

Compound: CCCCCC=O [Hexylaldehyde]
- CH3SH Inhib. % ([1]; 300 ppm): 82%

Compound: CC(C)c1cccc(=O)c(O)c1 [Hinokitiol]
- Results of Judgment 30 sec (Log decrease of number of bacteria vs control) ([2]; 1000 ppm): >5.24 Log
- Results of Judgment 1 min (Log decrease of number of bacteria vs control) ([2]; 1000 ppm): >5.24 Log
- inhibition at 1000 ppm [1, 3]: 100%

Compound: CC=Cc1ccc(O)c(OC)c1 [Isoeugenol]
- Results of Judgment 30 sec (Log decrease of number of bacteria vs control) ([2]; 500 ppm): >3.93 Log
- Results of Judgment 1 min (Log decrease of number of bacteria vs control) ([2]; 500 ppm): >3.93 Log
- inhibition at 500 ppm [1, 4]: 100%

Compound: C=CC(C)(CCC=C(C)C)OC(C)=O (stereo not shown) [Linalyl acetate]
- inhibition at 500 ppm [1, 4]: 43%

Compound: CC1CCC(C(C)C)C(O)C1 (stereo not shown) [Menthol]
- inhibition at 3000 ppm ([1]; 3000 ppm, read-out: CH3SH Inhib. %): 100%

Compound: CC(C)[C@@H]1CC[C@@H](C)C[C@H]1OCC(O)CO (stereo partly shown) [Menthoxypropanediol]
- CH3SH Inhib. % ([1]; 1000 ppm): 100%

Compound: COC(=O)c1ccccc1O [Methyl salicylate]
- inhibition at 1000 ppm [1, 3]: 100%

Compound: CC1=CCC(=C(C)C)CC1 [Terpinolene]
- Results of Judgment 30 sec (Log decrease of number of bacteria vs control) ([2]; 100 ppm): 1.16 Log
- Results of Judgment 1 min (Log decrease of number of bacteria vs control) ([2]; 100 ppm): 1.63 Log
- inhibition at 100 ppm [1, 5]: 36%

Compound: Cc1ccc(C(C)C)c(O)c1 [Thymol]
- inhibition at 300 ppm ([1]; 300 ppm, read-out: CH3SH Inhib. %): 100%

Compound: C=C(C)[C@H]1CC=C(C)CC1 [d-Limonene]
- Results of Judgment 30 sec (Log decrease of number of bacteria vs control) ([2]; 500 ppm): 0.93 Log
- Results of Judgment 1 min (Log decrease of number of bacteria vs control) ([2]; 500 ppm): 1.50 Log
- CH3SH Inhib. % ([1]; 3000 ppm): 100%

Compound: COc1ccccc1C=CC=O [o-Methoxycinnamicaldehyde]
- Results of Judgment 30 sec (Log decrease of number of bacteria vs control) ([2]; 1000 ppm): 2.61 Log
- Results of Judgment 1 min (Log decrease of number of bacteria vs control) ([2]; 1000 ppm): 3.85 Log
- CH3SH Inhib. % ([1]; 1000 ppm): 100%

Compound: CCCCCC(C=O)=Cc1ccccc1 [α-Amylcinnamicaldehyde]
- CH3SH Inhib. % ([1]; 500 ppm): 99%

Compound: C=C1CCC2CC1C2(C)C (stereo not drawn) [β-Pinene]
- Results of Judgment 30 sec (Log decrease of number of bacteria vs control) ([2]; 500 ppm): 0.71 Log
- Results of Judgment 1 min (Log decrease of number of bacteria vs control) ([2]; 500 ppm): 1.12 Log
- inhibition at 500 ppm [1, 4]: 59%

Compound: CCCCCCC1CCC(=O)O1 (stereo not shown) [γ-Decalactone]
- CH3SH Inhib. % ([1]; 100 ppm): 59%

Compound: CC1=CCC(C(C)C)=CC1 [γ-Terpinene]
- Results of Judgment 30 sec (Log decrease of number of bacteria vs control) ([2]; 500 ppm): 0.94 Log
- Results of Judgment 1 min (Log decrease of number of bacteria vs control) ([2]; 500 ppm): 1.26 Log
- inhibition at 500 ppm [1, 4]: 66%

Compound: CCCCCCCC1CCC(=O)O1 (stereo not shown) [γ-Undecalactone]
- CH3SH Inhib. % ([1]; 100 ppm): 70%

Compound: L-Carvone
- CH3SH Inhib. % ([1]; 1000 ppm): 100%
